In US12365656B2, “Oxazolidinone compounds and methods of use thereof as antibacterial agents” (priority 2019, dated 2025):
pIC50: −log10 of the molar value. Converted amounts (≈) assume the structure as drawn. Like-named read-outs stand apart in the source and are kept apart here.

Assays:
Type in all cases: cell-based
[1] = tested on: Mycobacterium tuberculosis (Mtb-GFP; H37Rv pMSP12::GFP); assay: microbe, parasite or virus in culture; conditions: for MIC: Mycobacterium tuberculosis, H37RV, 168 h, pH 6.8, read-out: Mtb Cho MITC95
[2] = tested on: Mycobacterium tuberculosis (Mtb-GFP; H37Rv pMSP12::GFP); assay: microbe, parasite or virus in culture; conditions: for MIC: Mycobacterium tuberculosis, H37RV, 168 h, pH 6.8, read-out: Mtb Glu MITC95
[3] = tested on: mitochondrial protein synthesis in HepG2 cells; assay: Mitochondrial protein synthesis assay; conditions: 4 days, COX-1 relative to SDH-A / Janus Green, In Cell ELISA, read-out: MPS IC50

Molecule	Mtb Cho MITC95 ([1]; cholesterol carbon source, pH 6.8, 7-day growth, GFP fluorescence, lowest concentration inhibiting 95% of growth) [µM]	Mtb Glu MITC95 ([2]; glucose carbon source, pH 6.8, 7-day growth, GFP fluorescence, lowest concentration inhibiting 95% of growth) [µM]	pIC50 [3]	MIC [1] [µM]	MIC [2] [µM]	pIC50 ([3]; Homo sapiens, 96 h)
4-{2,6-difluoro-4-[(5R)-5-(hydroxymethyl)-2-oxo-1,3-oxazolidin-3-yl]phenyl}-4-hydroxy-1λ^6-thiane-1,1-dione [Example 34]	25	25	< 4.00			
CS(=O)(=O)c1ccc(-c2ccc(N3C[C@H](CO)OC3=O)cc2F)cc1 [Example 1, (5R)-3-[2-fluoro-4′-(methylsulfonyl)biphenyl-4-yl]-5-(hydroxymethyl)-1,3-oxazolidin-2-one]				1.2 (≈ 0.438 µg/mL)	1 (≈ 0.365 µg/mL)	5.15
O=C1O[C@@H](CO)CN1c1cc(F)c(C2(F)CCS(=O)(=O)CC2)c(F)c1 [Example 2, (5R)-3-[3,5-difluoro-4-(4-fluoro-1,1-dioxidotetrahydro-2H-thiopyran-4-yl)phenyl]-5-(hydroxymethyl)-1,3-oxazolidin-2-one]				2.2 (≈ 0.835 µg/mL)	1.9 (≈ 0.721 µg/mL)	< 4.00
CSc1ccc(-c2ccc(N3C[C@H](CO)OC3=O)cc2F)cc1 [Example 4, (5R)-3-[2-fluoro-4′-(methylsulfanyl)[1,1′-biphenyl]-4-yl]-5-(hydroxymethyl)-1,3-oxazolidin-2-one]				0.24 (≈ 0.08 µg/mL)	0.21 (≈ 0.07 µg/mL)	< 4.00
O=C1O[C@@H](CO)CN1c1ccc(-c2ccn3ncnc3c2)c(F)c1 [Example 8, (5R)-3-[3-fluoro-4-([1,2,4]triazolo[1,5-a]pyridin-7-yl)phenyl]-5-(hydroxymethyl)-1,3-oxazolidin-2-one]				1.8 (≈ 0.591 µg/mL)	1.5 (≈ 0.492 µg/mL)	5.43
O=C1O[C@@H](CO)CN1c1ccc(-c2ccc(OCCO)cc2)c(F)c1 [Example 12, (5R)-3-[2-fluoro-4'-(2-hydroxyethoxy)[1,1′-biphenyl]-4-yl]-5-(hydroxymethyl)-1,3-oxazolidin-2-one]				0.39 (≈ 0.135 µg/mL)	0.78 (≈ 0.271 µg/mL)	4.72
CN1CC(C)(S(=O)(=O)c2ccc(-c3ccc(N4C[C@H](CO)OC4=O)cc3F)cc2)C1 [Example 14, (5R)-3-[4'-(1,3-dimethylazetidine-3-sulfonyl)-2-fluoro[1,1′-biphenyl]-4-yl]-5-(hydroxymethyl)-1,3-oxazolidin-2-one]				0.78 (≈ 0.339 µg/mL)	0.78 (≈ 0.339 µg/mL)	4.64
O=C1O[C@@H](CO)CN1c1cc(F)c(C2=CCS(=O)(=O)CC2)c(F)c1 [Example 15, 4-{2,6-difluoro-4-[(5R)-5-(hydroxymethyl)-2-oxo-1,3-oxazolidin-3-yl]phenyl}-3,6-dihydro-1λ6-thiopyran-1,1(2H)-dione]				1.6 (≈ 0.575 µg/mL)	1.6 (≈ 0.575 µg/mL)	< 4.00
N#CC1(c2c(F)cc(N3C[C@H](CO)OC3=O)cc2F)CCS(=O)(=O)CC1 [Example 16, 4-{2,6-difluoro-4-[(5R)-5-(hydroxymethyl)-2-oxo-1,3-oxazolidin-3-yl]phenyl}-1,1-dioxo-1λ6-thiane-4-carbonitrile]				1.6 (≈ 0.618 µg/mL)	1.6 (≈ 0.618 µg/mL)	4.30
O=C1O[C@@H](CO)CN1c1cc(F)c(N2CC3CS(=O)(=O)CC3C2)c(F)c1 (stereo partly drawn) [Example 17, 5-{2,6-difluoro-4-[(5R)-5-(hydroxymethyl)-2-oxo-1,3-oxazolidin-3-yl]phenyl}hexahydro-2λ6-thieno[3,4-c]pyrrole-2,2(1H)-dione]				3.1 (≈ 1.2 µg/mL)	2.3 (≈ 0.893 µg/mL)	< 4.00
CC(=O)N1CCN(c2c(F)cc(N3C[C@H](CO)OC3=O)cc2F)C2CC21 (stereo partly drawn) [Example 18, (5R)-3-[4-(5-acetyl-2,5-diazabicyclo[4.1.0]heptan-2-yl)-3,5-difluorophenyl]-5-(hydroxymethyl)-1,3-oxazolidin-2-one]				3.1 (≈ 1.14 µg/mL)	3.1 (≈ 1.14 µg/mL)	< 4.00
Cc1nnc2cc(-c3ccc(N4C[C@H](CO)OC4=O)cc3F)ccn12 [Example 19, (5R)-3-[3-fluoro-4-(3-methyl[1,2,4]triazolo[4,3-a]pyridin-7-yl)phenyl]-5-(hydroxymethyl)-1,3-oxazolidin-2-one]				1.2 (≈ 0.411 µg/mL)	1.2 (≈ 0.411 µg/mL)	4.74
CN1CC(S(=O)(=O)c2ccc(-c3ccc(N4C[C@H](CO)OC4=O)cc3F)cc2)C1 [Example 20, (5R)-3-[2-fluoro-4′-(1-methylazetidine-3-sulfonyl)[1,1′-biphenyl]-4-yl]-5-(hydroxymethyl)-1,3-oxazolidin-2-one]				0.39 (≈ 0.164 µg/mL)	0.39 (≈ 0.164 µg/mL)	5.13
O=C1O[C@@H](CO)CN1c1cc(F)c(N2CCN(C(=O)C3CC3)C3CC32)c(F)c1 (stereo partly drawn) [Example 21, (5R)-3-{4-[5-(cyclopropanecarbonyl)-2,5-diazabicyclo[4.1.0]heptan-2-yl]-3,5-difluorophenyl}-5-(hydroxymethyl)-1,3-oxazolidin-2-one]				3.1 (≈ 1.22 µg/mL)	6.3 (≈ 2.48 µg/mL)	< 4.89
O=C1O[C@@H](CO)CN1c1cc(F)c(N2CCS(=O)(=O)CC2)c(F)c1 [Example 22, 4-{2,6-difluoro-4-[(5R)-5-(hydroxymethyl)-2-oxo-1,3-oxazolidin-3-yl]phenyl}-1λ^6-thiomorpholine-1,1-dione]				6.3 (≈ 2.28 µg/mL)	3.9 (≈ 1.41 µg/mL)	< 4.00
CN1CC(C)(S(=O)(=O)c2ccc(-c3ccc(N4C[C@H](CO)OC4=O)cc3)cc2)C1 [Example 23, (5R)-3-[4'-(1,3-dimethylazetidine-3-sulfonyl)[1,1'-biphenyl]-4-yl]-5-(hydroxymethyl)-1,3-oxazolidin-2-one]				3.1 (≈ 1.29 µg/mL)	1.6 (≈ 0.666 µg/mL)	< 4.00
O=C1O[C@@H](CO)CN1c1ccc(C2(F)CCS(=O)(=O)CC2)c(F)c1 [Example 24, 4-fluoro-4-[2-fluoro-4-[(5R)-5-(hydroxymethyl)-2-oxo-1,3-oxazolidin-3-yl]phenyl}-1λ^6-thiane-1,1-dione]				6.3 (≈ 2.28 µg/mL)	6.3 (≈ 2.28 µg/mL)	< 4.30
O=C1O[C@@H](CO)CN1c1cc(F)c(C2(F)CCS(=O)(=O)CC2)c(F)c1F [Example 25, 4-fluoro-4-{2,3,6-trifluoro-4-[(5R)-5-(hydroxymethyl)-2-oxo-1,3-oxazolidin-3-yl]phenyl}-1λ^6-thiane-1,1-dione]				6.3 (≈ 2.5 µg/mL)	6.3 (≈ 2.5 µg/mL)	< 4.00
Cn1cc(-c2ccc(N3C[C@H](CO)OC3=O)cc2F)ccc1=O [Example 26, 5-{2-fluoro-4-[(5R)-5-(hydroxymethyl)-2-oxo-1,3-oxazolidin-3-yl]phenyl}-1-methylpyridin-2(1H)-one]				6.3 (≈ 2.01 µg/mL)	6.3 (≈ 2.01 µg/mL)	4.55
CN=S1(=O)CCN(c2c(F)cc(N3C[C@H](CO)OC3=O)cc2F)CC1 [Example 27, 4-{2,6-difluoro-4-[(5R)-5-(hydroxymethyl)-2-oxo-1,3-oxazolidin-3-yl]phenyl}-1-(methylimino)-1λ^6-thiomorpholin-1-one]				6.3 (≈ 2.37 µg/mL)	6.3 (≈ 2.37 µg/mL)	< 4.00
CS(=O)(=O)c1ccc(-c2ccc(N3C[C@H](CO)OC3=O)cc2)cc1 [Example 28, (5R)-5-(hydroxymethyl)-3-[4′-(methanesulfonyl)[1,1′-biphenyl]-4-yl]-1,3-oxazolidin-2-one]				1.6 (≈ 0.556 µg/mL)	1.6 (≈ 0.556 µg/mL)	4.49
O=C1O[C@@H](CO)CN1c1ccc(-c2ccc(S(=O)(=O)C3CCC3)cc2)c(F)c1 [Example 29, (5R)-3-[4′-(cyclobutanesulfonyl)-2-fluoro[1,1′-biphenyl]-4-yl]-5-(hydroxymethyl)-1,3-oxazolidin-2-one]				3.1 (≈ 1.26 µg/mL)	3.1 (≈ 1.26 µg/mL)	< 4.00
O=C1O[C@@H](CO)CN1c1cc(F)c(C2(F)CCS(=O)(=O)CC2)c(Cl)c1 [Example 30, 4-{2-chloro-6-fluoro-4-[(5R)-5-(hydroxymethyl)-2-oxo-1,3-oxazolidin-3-yl]phenyl}-4-fluoro-1λ^6-thiane-1,1-dione]				13 (≈ 5.15 µg/mL)	6.3 (≈ 2.49 µg/mL)	< 4.00
O=C1O[C@@H](CO)CN1c1ccc(C2(F)CCS(=O)(=O)CC2)c(Cl)c1 [Example 31, 4-{2-chloro-4-[(5R)-5-(hydroxymethyl)-2-oxo-1,3-oxazolidin-3-yl]phenyl}-4-fluoro-1λ^6-thiane-1,1-dione]				13 (≈ 4.91 µg/mL)	13 (≈ 4.91 µg/mL)	< 4.00
O=C1O[C@@H](CO)CN1c1ccc(-c2ccc(S(=O)(=O)C3CC3)cc2)cc1 [Example 32, (5R)-3-[4′-(cyclopropanesulfonyl)[1,1′-biphenyl]-4-yl]-5-(hydroxymethyl)-1,3-oxazolidin-2-one]				3.1 (≈ 1.16 µg/mL)	3.1 (≈ 1.16 µg/mL)	4.52
O=C1O[C@@H](CO)CN1c1ccc(-c2ccc(S(=O)(=O)C3COC3)cc2)cc1 [Example 33, (5R)-5-(hydroxymethyl)-3-[4′-(oxetane-3-sulfonyl)[1,1′-biphenyl]-4-yl]-1,3-oxazolidin-2-one]				2.3 (≈ 0.896 µg/mL)	3.1 (≈ 1.21 µg/mL)	5.01
Cc1cc(N2C[C@H](CO)OC2=O)ccc1C1(F)CCS(=O)(=O)CC1 [Example 35, 4-fluoro-4-{4-[(5R)-5-(hydroxymethyl)-2-oxo-1,3-oxazolidin-3-yl]-2-methylphenyl}-1λ^6-thiane-1,1-dione]				50 (≈ 17.9 µg/mL)	25 (≈ 8.94 µg/mL)	< 4.00
O=C1O[C@@H](CO)CN1c1ccc(C2(F)CCS(=O)(=O)CC2)cc1 [Example 36, 4-fluoro-4-{4-[(5R)-5-(hydroxymethyl)-2-oxo-1,3-oxazolidin-3-yl]phenyl}-1λ^6-thiane-1,1-dione]				38 (≈ 13 µg/mL)	50 (≈ 17.2 µg/mL)	< 4.30
O=C1O[C@@H](CO)CN1c1ccc(C2(F)CCS(=O)(=O)CC2)c(C(F)(F)F)c1 [Example 37, 4-fluoro-4-{4-[(5R)-5-(hydroxymethyl)-2-oxo-1,3-oxazolidin-3-yl]-2-(trifluoromethyl)phenyl}-1λ^6-thiane-1,1-dione]				50 (≈ 20.6 µg/mL)	50 (≈ 20.6 µg/mL)	< 4.00
